Measured values from patent publication US6693105B1, “Hydroxyl-containing compounds” (Cell Therapeutics, Inc., priority 1992, dated 2004).

Legend:
[1] = test system: PBMC (peripheral blood mononuclear cells); test: two-way mixed lymphocyte reaction (MLR), proliferative response of PBMC to allogeneic stimulation; format: cell-based, human; settings: for IC50: Homo sapiens, PBMC, mixed lymphocyte reaction; for immune modulating activity compared with PTX: two-way MLR, FIG. 1
Description: Various in vitro assays can be used to measure effects of the inventive compounds to module immune activity and have antitumor activity using a variety of cellular types. For example, a mixed lymphocyte reaction (MLR) provides a valuable screening tool to determine biological activity of each inventive compound. In the MLR, PBMCs (peripheral blood mononuclear cells) are obtained by drawing whole blood from healthy volunteers in a heparinized container and diluted with an equal volume of hanks balanced salt solution (HBSS). This mixture is layered on a sucrose density gradient, such as a Ficoll-Hypaque® gradient (specific gravity 1.08), and centrifuged at 1000×g for 25 minutes at room temperature or cooler. PBMC are obtained from a band at a plasma-Ficoll interface, separated and washed at least twice in a saline solution, such as HBSS. Contaminating red cells are lysed, such as by ACK lysis for 10 min at 37° C., and the PBMCs are washed twice in HBSS. The pellet of purified PBMCs is resuspended in complete medium, such as RPMI 1640 plus 20% human inactivated serum. Proliferative response of PBMC to allogeneic stimulation is determined in a two-way MLR performed in a 96-well microtiter plate. Briefly, approximately 10^5 test purified PBMC cells in […] complete medium are co-cultured with approximately 10^5 autologous (control culture) or allogeneic (stimulated culture) PBMC cells, wherein the allogeneic cells are from HLA disparate individuals. Varying doses of compounds (drug) are added at the time of addition of cells to the microtiter plate. The cultures are incubated for 6 days at 37° C. in a 5% CO2 atmosphere. At the conclusion of the incubation tritiated thymidine is added (for example, 1 µCi/well of 40 to 60 Ci/mmole) and proliferation determined by liquid scintillation counting.
This example illustrates the effect of compounds nos. 1551 and 1559 as an immune modulator. […] 1551 and 1559 (see above for chemical names and structures).

[2] = test system: human stromal cells; test: PDGF-induced proliferation of human stromal cells; format: cell-based; settings: 50 ng/ml PDGF-BB, drug added one hour before, tritiated thymidine, FIG. 2
Description: (§1) Another assay for measuring activity of the inventive compounds involves determining PDGF, FGF or VEGF proliferative response using either mouse NIH-3T3 (Balb) cells or human-derived stromal cells. Human stromal cells are plated (e g., about 2000 cells per well) in defined media (e.g., 69% McCoy's, 12.5% fetal calf serum, 12.5% horse serum, 1% antibiotics, 1% glutamine, 1% vitamin supplement, 0.8% essential amino acids, 1% sodium pyruvate, 1% sodium bicarbonate, 0.4% non-essential amino acids and 0.36% hydrocortisone). Two to three days later, the stromal cells are starved in serum-free media. Twenty four hours later, the cells are treated with a stimulating agent, such as PDGF-AA, PDGF-BB or basic FGF (fibroblast growth factor) with or without IL-1 or TNF, and tritiated thymidine. Cell proliferation is determined by liquid scintillation counting.
This example illustrates a comparison of compounds nos. 1551 and 1559 on PDGF-induced (platelet derived growth factor) proliferation of human stromal cells. Human stromal cells were starved in serum-free media for 24 hours and then stimulated with 50 ng/ml of PDGF-BB. The drugs were added at various indicated concentrations one hour prior to PDGF stimulation. Tritiated thymidine was added at the time of PDGF stimulation. The cells were harvested and counted by liquid scintillation 24 hours after stimulation with PDGF. […]

[3] = test system: LD-2 cells, a human malignant melanoma cell line; test: cytotoxicity on LD-2 cells (BCECF viability stain); format: cell-based; settings: various concentrations, FIG. 3
Description: (§2) This example provide data from an experiment measuring compound no. 1559 cytotoxicity on LD-2 cells, a human malignant melanoma cell line. The cells were treated with various concentrations of compound no. 1559 and later stained for cell viability with a fluorescence stain (BCECF) and analyzed using a Milipore fluorescence plate reader.

[4] = test system: NIH-3T3 cells; test: cytotoxicity on NIH-3T3 cells (BCECF viability stain); format: cell-based, mouse; settings: various concentrations, FIG. 4
Description: as §2, with “provides” for “provide”, “NIH-3T3 cells and their Ras transformed counterpart, NIH-3T3 Ras cells.” for “LD-2 cells, a human malignant melanoma cell line.”

[5] = test system: NIH-3T3 Ras cells; test: cytotoxicity on NIH-3T3 Ras cells (BCECF viability stain); format: cell-based, mouse; settings: various concentrations, FIG. 4
Description: as §2, with “provides” for “provide”, “NIH-3T3 cells and their Ras transformed counterpart, NIH-3T3 Ras cells.” for “LD-2 cells, a human malignant melanoma cell line.”

[6] = test system: VCAM; test: TNF-induced cell surface expression of VCAM in HUVEC, flow cytometry; format: cell-based, human; settings: for % of cells in gate (VCAM expression): 20 ng/ml TNF for 20 hours, 1559 at 0.25 mM one hour prior to TNF, TNF alone 34.5%, non-induced 0.4%
Description: This example illustrates the effect of compound no. 1559 on inhibiting cell surface expression of VCAM in human umbilical vein endothelial cells (HUVEC). The HUVEC cells were stimulated with 20 ng/ml TNF- for 20 hours and then stained for immunofluorescence using a monoclonal antibody recognizing VCAM, followed by a goat anti-mouse antibody conjugated to phycoerythrin. The cells were analyzed for antibody binding using flow cytometry. […] The top left histogram is non-TNF induced expression of VCAM (% of cells in gate A is 0.4%). […] 1559 (0.25 mM), one hour prior to TNF addition (% of cells in gate C is 24%).
This example illustrates the effect of compound no. 1559 on inhibiting cell surface expression of VCAM in HUVEC cells. The cells were stimulated with TNF- (20 ng/ml) for 20 hours and then stained for immunofluorescence using a monoclonal antibody recognizing VCAM, followed by a goat anti-mouse antibody conjugated to phycoerythrin. The cells were analyzed for antibody binding using flow cytometry. […] The mean fluorescence levels were decreased by compound no. 1559 treatment (1.7 fold decrease) when compared with control levels (TNF treatment, no drug).

[7] = test system: murine thymocytes; test: murine thymocyte proliferation co-stimulated by ConA and IL-2; format: cell-based, Balb/C mice; settings: Mus musculus, ConA 0.25 mg/ml and IL-2 15 U/ml, drug added two hours before, 4 days
Description: This example illustrates dose response curves used to generate 50% inhibition concentration (IC50) of inventive compounds nos. 1551 and 1564 for murine thymocyte proliferation, co-stimulated by Concanavalin A (ConA) and interleukin-2 alpha (IL-2). ConA, used to activate CD3, along with IL-2 co-stimulation, induces T-cell proliferation and differentiation. Thymuses, obtained from normal, female Balb/C mice, were dissociated and plated into 96-well plates at a density of 2×10^5 cells/well. ConA (0.25 mg/ml) and IL-2 (15 U/ml) were added to the wells. The cells were incubated for 4 days at 37° C. On day 4, the cells were pulsed with tritiated thymidine and incubated for an additional 4 hours. The amount of tritiated thymidine dye incorporated by the harvested cells was determined in a liquid scintillation counter. Drug doses (shown in FIGS. 7A and 7B) were added two hours prior to ConA and IL-2 activation. Background counts were less than 200 cpm. […] 1551 and 1564 are 28 and 49 μM.

[8] = test system: IL-12 signaling; test: IL-12 dependent in vitro T-helper cell (Th1) differentiation assay; format: cell-based; settings: anti-CD3 stimulated splenic T cells, 5 U/ml IL-12, compound present during T cell activation
Description: This example illustrates the assay used to determine the effect of compounds of this invention in suppressing Th1 differentiation in vitro by blocking IL-12 signaling. Compounds are tested in an IL-12 dependent in vitro T-helper cell differentiation assay as described in LeGross et al., J. Exp. Med., 172:921-929 (1990). Recombinant IL-12 is used to induce Th1 differentiation. Splenic T cells are purified utilizing the antibodies RA3-3A1/6.1 (anti-B220), J11d and MAR8.5 (anti-rat kappa chain) to deplete the B cells via complement mediated toxicity following the procedure set forth in Klaus et al., J. Immunol., 149:1867-1875 (1992). Splenic T cells are stimulated at 5×10^5/ml with insoluble anti-CD3 alone (145-2C11, Pharmingen, San Diego, Calif.), or anti-CD3 and 5 U/ml IL-12, with and without each inventive compound. After seven days, equal numbers of viable cells are restimulated for 24 hours with anti-CD3 without the inventive compounds, and the supernatants are collected and assayed for IFN-γ production. IFN-γ and IL-4 levels are measured by Intertest kits from Genzyme specific for IFN-γ and IL-4.
Th1 differentiation is induced by culturing anti-CD3 stimulated T cells in the presence of exogenous IL-12. […] Neither the viability or recovery of T cells after one week of culture in the presence of the compound.

[9] = test system: Balb/3T3 cells; test: PDGF-BB-induced proliferation of Balb/3T3 cells; format: cell-based, mouse; settings: tritiated thymidine, FIGS. 8A and 9A
Description: as §1
Balb/3T3 cells respond vigorously to PDGF stimulation, and are useful in vitro models for further study of PDGF-induced proliferation. Disregulated PDGF-proliferative response has been linked to a variety of diseases, including, e.g., restenosis, atherosclerosis, fibrosis, and tumor cell angiogenesis. Cells were plated in low serum-containing medium for 24 hours prior to stimulation with various concentrations (as reported in FIGS. 8A and 9A) of inventive compounds nos.2556 and 3504 (FIGS. 8A and 9A, respectively). […]

Cn1cnc2c1c(=O)n(CCCCCCCO)c(=O)n2C [Compound 1545, 1-(7-Hydroxyheptyl)-3,7-dimethylxanthine]
IC50 [1]: 300 µM

Cn1cnc2c1c(=O)n(CCCCCCCC(O)CO)c(=O)n2C (centres unmarked) [Compound 1561, 1-(8,9-Dihydroxynonyl)-3,7-dimethylxanthine]
IC50 [1]: 185 µM

Cn1cnc2c1c(=O)n(CCCCCCO)c(=O)n2C [Compound 1556, 1-(6-Hydroxyhexyl)-3,7-dimethylxanthine]
IC50 [1]: > 500 µM

Cn1cnc2c1c(=O)n(CCCCCCCCCCO)c(=O)n2C [Compound 1559, 1-(10-Hydroxydecyl)-3,7-dimethylxanthine]
IC50 [1]: 150 µM | immune modulating activity compared with PTX [1]: more effective and more potent than PTX | inhibition of PDGF-induced stimulation (proliferation) [2]: inhibited PDGF-induced stimulation | cytotoxicity [3]: cytotoxic at higher concentrations | cytotoxicity [4]: cytotoxic at higher concentrations | cytotoxicity [5]: cytotoxic at higher concentrations | % of cells in gate (VCAM expression) [6]: 24% | decrease of mean fluorescence levels (VCAM) compared with control (TNF treatment, no drug) ([6]; TNF 20 ng/ml for 20 hours, FIG. 6): 1.7 fold decrease

Cn1cnc2c1c(=O)n(CCCCCCCCC(O)CO)c(=O)n2C (centres unmarked) [Compound 1564, 1-(9,10-Dihydroxydecyl)-3,7-dimethylxanthine]
IC50 [1]: 210 µM | IC50 [7]: 49 µM

CC(O)CCCCCCn1c(=O)c2c(ncn2C)n(C)c1=O (centres unmarked) [Compound 1536, 1-(7-Hydroxyoctyl)-3,7-dimethylxanthine]
IC50 [1]: 250 µM | inhibition of Th1 differentiation enhanced by exogenous IL-12 [8]: inhibited Th1 differentiation

Cn1cnc2c1c(=O)n(CC(O)CO)c(=O)n2C (centres unmarked) [Compound 1540, 1-(2,3-Dihydroxypropyl)-3,7-dimethylxanthine]
IC50 [1]: > 500 µM

Cn1cnc2c1c(=O)n(CCCCCCCCO)c(=O)n2C [Compound 1546, 1-(8-Hydroxyoctyl)-3,7-dimethylxanthine]
IC50 [1]: 320 µM

Cn1cnc2c1c(=O)n(CCCCCCC(O)CO)c(=O)n2C (centres unmarked) [Compound 1538, 1-(7,8-Dihydroxyoctyl)-3,7-dimethylxanthine]
IC50 [1]: > 500 µM

CC(O)CCCn1c(=O)c2c(ncn2C)n(C)c1=O (centres unmarked) [Compound 1542, 1-(4-Hydroxypentyl)-3,7-dimethylxanthine]
IC50 [1]: > 500 µM

Cn1cnc2c1c(=O)n(CCCCCCCCCCCC(O)CO)c(=O)n2C (centres unmarked) [Compound 2556]
inhibition of PDGF-induced proliferation [9]: inhibited PDGF-induced proliferation

CC(O)CCCCCCCCCCCCn1c(=O)c2c(ncn2C)n(C)c1=O (centres unmarked) [Compound 3504, 1-(13-Hydroxytetradecyl)-3,7-dimethylxanthine]
inhibition of PDGF-induced proliferation [9]: inhibited PDGF-induced proliferation

CC(O)CCCCCCCn1c(=O)c2c(ncn2C)n(C)c1=O (centres unmarked) [Compound 1551, 1-(8-Hydroxynonyl)-3,7-dimethylxanthine]
IC50 [1]: 120 µM | immune modulating activity compared with PTX [1]: more effective and more potent than PTX | inhibition of PDGF-induced stimulation (proliferation) [2]: inhibited PDGF-induced stimulation | IC50 [7]: 28 µM

CC(=O)CCCCn1c(=O)c2c(ncn2C)n(C)c1=O [PTX, 1-(5-oxohexyl)-3,7-dimethylxanthine, reference compound]
% of cells in gate (VCAM expression) [6]: 36.8%
